Data reported in US12264158B2, “Protein kinase MKK4 inhibitors for promoting liver regeneration or reducing or preventing hepatocyte death” (HEPAREGENIX GMBH, priority 2018, dated 2025).

How the values were obtained:
[1] = biological target: T1, MKK4-MEKK2 mix (Homo sapiens, UniProt P45985); assay: Radiometric protein kinase assay, MEKK2 dependent MKK4 activation (cascade); format: biochemical; details: substrate JNK1 KRKR, ATP 0.2 μM, read-out: Cascade, potency derived from IC50-values
T1 construct: MEKK2, recombinant, active: ProQinase product #0583-0000-1
T1 sequence (P45985 2-399): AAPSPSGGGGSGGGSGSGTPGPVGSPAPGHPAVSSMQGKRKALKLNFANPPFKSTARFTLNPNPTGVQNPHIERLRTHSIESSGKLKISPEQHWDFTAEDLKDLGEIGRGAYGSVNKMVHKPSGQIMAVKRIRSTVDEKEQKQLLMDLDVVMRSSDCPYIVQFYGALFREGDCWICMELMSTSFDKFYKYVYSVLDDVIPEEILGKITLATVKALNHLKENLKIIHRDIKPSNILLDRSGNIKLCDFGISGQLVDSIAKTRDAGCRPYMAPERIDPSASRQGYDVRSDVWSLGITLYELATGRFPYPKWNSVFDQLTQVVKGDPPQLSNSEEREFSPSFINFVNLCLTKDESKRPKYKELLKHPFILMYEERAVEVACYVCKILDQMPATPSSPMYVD
Method: The activation step is done in 50 mM HEPES pH 7.5, 50 mM NaCl, 3.8 mM MgCl2, 2.5 mM DTT, 10% (v/v) glycerol. Final DMSO concentration is 1%. The activation mixture is pipetted in the following order • 2.5 μl compound in 4% DMSO • 2.5 μl ATP/MgCl2 mix • 5 μl premixed kinase solution MKK4:MEKK2 10:1 (w/w)
Protein concentrations in the activation mix are 1 μM MKK4 and 50 nM MEKK2.
(§1) A radiometric protein kinase assay was used for measuring the kinase activity of the respective protein kinases. All kinase assays were performed in 96-well polypropylene plates. After the reactions were stopped, the assay mixtures were transferred to 96-well MSFC filter-plates (Millipore). The reaction mix was passed through the filter membrane by aspiration, the membrane was washed 3 times with 150 mM H3PO4, once with ethanol, dried and liquid scintillation cocktail was added. Radioactivity was determined by counting of the samples in a Microbeta multiwell scintillation counter (Wallac).

[2] = biological target: T2, MKK4 active (Homo sapiens, UniProt P45985); assay: Radiometric protein kinase assay, MKK4 active; format: biochemical; details: substrate JNK1 KRKR, ATP 0.2 μM, read-out: MKK4, potency derived from IC50-values
T2 construct: purchased ProQinase #0948-0000-1
T2 sequence (P45985 1-399): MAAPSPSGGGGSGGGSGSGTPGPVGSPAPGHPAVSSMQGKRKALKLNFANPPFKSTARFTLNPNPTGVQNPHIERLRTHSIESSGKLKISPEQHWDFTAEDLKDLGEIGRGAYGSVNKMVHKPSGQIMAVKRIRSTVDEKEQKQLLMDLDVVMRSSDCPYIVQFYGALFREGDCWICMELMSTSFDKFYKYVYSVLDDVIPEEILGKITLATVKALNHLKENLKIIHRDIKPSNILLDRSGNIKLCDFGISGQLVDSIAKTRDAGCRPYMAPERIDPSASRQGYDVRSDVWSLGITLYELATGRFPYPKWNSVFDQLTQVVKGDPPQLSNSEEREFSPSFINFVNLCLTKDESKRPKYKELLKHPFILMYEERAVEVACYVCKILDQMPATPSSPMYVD
Method: as §1

[3] = biological target: T3, MKK7 (Homo sapiens, UniProt O14733); assay: KINOMEscan competition binding assay, selectivity against off-target MKK7; details: concentration of 100 nM
T3 construct: M1/R419; host or cells: HEK-293
T3 sequence (O14733 1-419): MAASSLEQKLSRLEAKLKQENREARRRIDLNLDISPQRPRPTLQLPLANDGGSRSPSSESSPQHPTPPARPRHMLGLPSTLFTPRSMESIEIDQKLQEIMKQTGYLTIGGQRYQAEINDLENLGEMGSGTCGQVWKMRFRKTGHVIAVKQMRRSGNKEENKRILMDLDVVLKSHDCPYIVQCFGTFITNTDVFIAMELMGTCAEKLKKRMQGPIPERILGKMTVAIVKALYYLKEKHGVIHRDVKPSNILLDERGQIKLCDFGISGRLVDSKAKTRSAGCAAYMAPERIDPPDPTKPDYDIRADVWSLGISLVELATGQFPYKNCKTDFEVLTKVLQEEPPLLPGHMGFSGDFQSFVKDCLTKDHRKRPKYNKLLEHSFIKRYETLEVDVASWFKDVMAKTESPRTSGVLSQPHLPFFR
Method: (§2) The assay was performed by combining three components: DNA-tagged kinase; immobilized ligand; and a test compound. The ability of the test compound to compete with the immobilized ligand was measured via quantitative PCR of the DNA tag. The technology is described in detail in Fabian, M. A. et al. A small molecule-kinase interaction map for clinical kinase inhibitors. Nat. […] M. W. et al. A quantitative analysis of kinase inhibitor selectivity, Nat.
(§3) For investigation of the affinity to MKK4, MKK7 and JNK1, the kinases were produced in HEK-293 cells and subsequently tagged with DNA for qPCR detection. […] The liganded beads were blocked with excess biotin and washed with blocking buffer (SEABLOCK™ (Pierce), 1% BSA, 0.05% TWEEN®20, 1 mM DTT) to remove unbound ligand and to reduce nonspecific binding. […] All reactions were performed in polystyrene 96-well plates in a final volume of 0.135 mL. […] The kinase concentration in the eluates was measured by qPCR.
(§4) The test compounds were provided as 10 mM stock solutions. The test solutions at indicated final concentrations were prepared at DiscoverX.

[4] = biological target: T4, JNK1 (Homo sapiens, UniProt P45983); assay: KINOMEscan competition binding assay, selectivity against off-target JNK1; details: concentration of 100 nM
T4 construct: M1/Q384; host or cells: HEK-293
Method: as §2, §3, §4

[5] = biological target: BRaf (Homo sapiens, UniProt P15056); assay: KINOMEscan competition binding assay, selectivity against off-target BRaf; details: concentration of 100 nM
Method: as §2, §4

[6] = biological target: T5, MEKK2 (Homo sapiens, UniProt Q9Y2U5); assay: Radiometric protein kinase assay, MEKK2; format: biochemical; details: substrate Casein, ATP 0.2 μM; read-out: MEKK2, potency derived from IC50-values
T5 construct: purchased ProQinase #0583-0000-1
T5 sequence (Q9Y2U5 1-619): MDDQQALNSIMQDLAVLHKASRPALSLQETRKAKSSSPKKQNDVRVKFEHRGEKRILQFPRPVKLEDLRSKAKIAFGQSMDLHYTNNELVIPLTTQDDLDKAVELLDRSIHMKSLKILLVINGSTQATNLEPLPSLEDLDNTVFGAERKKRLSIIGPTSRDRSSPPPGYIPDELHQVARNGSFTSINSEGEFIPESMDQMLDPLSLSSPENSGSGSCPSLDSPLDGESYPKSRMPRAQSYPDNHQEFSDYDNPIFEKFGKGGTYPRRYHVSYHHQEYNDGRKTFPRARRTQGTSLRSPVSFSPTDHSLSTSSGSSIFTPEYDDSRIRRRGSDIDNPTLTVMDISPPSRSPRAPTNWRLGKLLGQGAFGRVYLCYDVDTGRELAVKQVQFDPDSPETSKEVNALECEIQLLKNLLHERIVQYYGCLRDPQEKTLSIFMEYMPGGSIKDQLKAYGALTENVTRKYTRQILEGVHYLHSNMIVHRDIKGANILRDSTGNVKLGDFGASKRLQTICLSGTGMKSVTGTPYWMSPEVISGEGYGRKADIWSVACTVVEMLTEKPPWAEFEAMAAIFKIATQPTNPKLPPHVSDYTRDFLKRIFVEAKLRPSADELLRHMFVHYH
Method: as §1

[7] = biological target: T6, MKK4 (Homo sapiens, UniProt P45985); assay: KINOMEscan competition binding assay, MKK4 potency; details: concentration of 100 nM
T6 construct: S84/D399; host or cells: HEK-293
T6 sequence (P45985 84-399): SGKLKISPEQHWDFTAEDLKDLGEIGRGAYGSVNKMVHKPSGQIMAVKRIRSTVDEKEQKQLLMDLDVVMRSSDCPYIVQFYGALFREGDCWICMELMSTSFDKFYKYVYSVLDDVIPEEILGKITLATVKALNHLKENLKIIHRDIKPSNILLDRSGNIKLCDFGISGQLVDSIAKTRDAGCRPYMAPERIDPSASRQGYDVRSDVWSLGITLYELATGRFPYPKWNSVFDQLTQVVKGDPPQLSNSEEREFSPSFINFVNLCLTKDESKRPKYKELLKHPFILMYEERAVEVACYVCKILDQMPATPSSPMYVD
Method: as §2, §3, §4

T4 sequence (P45983 1-384 isoform P45983-2): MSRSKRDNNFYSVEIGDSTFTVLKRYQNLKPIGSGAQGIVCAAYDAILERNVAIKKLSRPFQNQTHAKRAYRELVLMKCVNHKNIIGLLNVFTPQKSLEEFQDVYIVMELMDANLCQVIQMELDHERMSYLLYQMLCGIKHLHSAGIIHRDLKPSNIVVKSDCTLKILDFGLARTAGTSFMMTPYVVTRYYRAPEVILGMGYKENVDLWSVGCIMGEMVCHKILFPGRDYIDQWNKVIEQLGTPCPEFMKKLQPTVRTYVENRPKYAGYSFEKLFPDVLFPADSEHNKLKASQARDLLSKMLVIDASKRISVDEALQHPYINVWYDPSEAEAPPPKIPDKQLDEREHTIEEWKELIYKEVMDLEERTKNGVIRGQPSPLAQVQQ
BRaf, sequence (P15056 whole entry): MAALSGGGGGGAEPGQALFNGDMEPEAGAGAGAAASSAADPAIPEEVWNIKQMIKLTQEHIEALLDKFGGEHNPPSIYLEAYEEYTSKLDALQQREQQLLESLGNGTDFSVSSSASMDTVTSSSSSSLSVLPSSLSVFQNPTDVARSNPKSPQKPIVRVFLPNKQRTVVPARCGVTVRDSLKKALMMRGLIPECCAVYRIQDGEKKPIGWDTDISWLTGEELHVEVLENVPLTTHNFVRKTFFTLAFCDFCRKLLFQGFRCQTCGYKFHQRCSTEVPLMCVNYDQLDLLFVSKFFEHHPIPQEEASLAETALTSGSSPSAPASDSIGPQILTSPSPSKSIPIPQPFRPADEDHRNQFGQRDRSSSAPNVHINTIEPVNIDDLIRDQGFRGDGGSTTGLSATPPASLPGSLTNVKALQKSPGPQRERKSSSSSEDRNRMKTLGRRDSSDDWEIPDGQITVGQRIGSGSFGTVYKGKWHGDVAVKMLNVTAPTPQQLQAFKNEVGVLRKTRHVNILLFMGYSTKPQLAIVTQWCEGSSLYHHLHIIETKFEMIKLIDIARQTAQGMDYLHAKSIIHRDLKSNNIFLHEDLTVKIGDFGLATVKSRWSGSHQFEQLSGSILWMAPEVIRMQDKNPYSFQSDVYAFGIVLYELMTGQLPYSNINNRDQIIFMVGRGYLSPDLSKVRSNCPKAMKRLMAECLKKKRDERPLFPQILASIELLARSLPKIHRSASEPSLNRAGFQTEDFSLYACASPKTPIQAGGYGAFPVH

Compound | IC50 [1] [nM] | IC50 [2] [nM] | Selectivity vs. MKK7, ratio PoC(MKK7)/PoC(MKK4) [3] | Selectivity vs. JNK1, ratio PoC(JNK1)/PoC(MKK4) [4] | Selectivity vs. BRaf, ratio PoC(BRaf)/PoC(MKK4) [5] | IC50 [6] [nM] | MKK4, residual percent of control binding (PoC) [7]
CCCS(=O)(=O)Nc1ccc(F)c(C(=O)c2n[nH]c3ncc(-c4ccccc4)cc23)c1F [Example 2, N-(2,4-difluoro-3-(5-phenyl-1H-pyrazolo[3,4-b]pyridine-3-carbonyl)phenyl)propane-1-sulfonamide] | 1000 to 10000 | < 500 | +++ (PoC(MKK7)/PoC(MKK4) ≥ 30) | ++ (30 > PoC(JNK1)/PoC(MKK4) ≥ 10) | ++ (30 > PoC(BRaf)/PoC(MKK4) ≥ 10) | > 10000 | ++ (1 ≤ PoC < 10)
CCCS(=O)(=O)Nc1ccc(F)c(C(=O)c2n[nH]c3ncc(-c4ccc(N(C)C)cc4)cc23)c1F [Example 8, N-(3-(5-(4-(dimethylamino)-phenyl)-1H-pyrazolo[3,4-b]pyridine-3-carbonyl)-2,4-difluorophenyl)-propane-1-sulfonamide] | > 10000 | 1000 to 10000 | +++ (PoC(MKK7)/PoC(MKK4) ≥ 30) | +++ (PoC(JNK1)/PoC(MKK4) ≥ 30) | O (PoC(BRaf)/PoC(MKK4) < 3) | > 10000 | ++ (1 ≤ PoC < 10)
CCCS(=O)(=O)Nc1ccc(F)c(C(=O)c2n[nH]c3ncc(-c4ccccc4Cl)cc23)c1F [Example 9, N-(3-(5-(2-chlorophenyl)-1H-pyrazolo[3,4-b]pyridine-3-carbonyl)-2,4-difluorophenyl)-propane-1-sulfonamide] | 1000 to 10000 | 500 to 1000 | ++ (30 > PoC(MKK7)/PoC(MKK4) ≥ 10) | ++ (30 > PoC(JNK1)/PoC(MKK4) ≥ 10) | + (10 > PoC(BRaf)/PoC(MKK4) ≥ 3) | 1000 to 10000 | ++ (1 ≤ PoC < 10)
CCCS(=O)(=O)Nc1ccc(F)c(C(=O)c2n[nH]c3ncc(-c4ccc(S(N)(=O)=O)cc4F)cc23)c1F [Example 51m, 4-(3-(2,6-difluoro-3-(propylsulfonamido)benzoyl)-1H-pyrazolo[3,4-b]pyridin-5-yl)-3-fluorobenzenesulfonamide] | 1000 to 10000 | < 500 | – | – | – | 1000 to 10000 | –
CCCS(=O)(=O)Nc1c(F)ccc(C(=O)c2n[nH]c3ncc(-c4ccc(C(=O)O)cc4)cc23)c1F [Example 62, 4-(3-(2,4-difluoro-3-(propylsulfon-amido)benzoyl)-1H-pyrazolo[3,4-b]pyridin-5-yl)benzoic acid] | – | < 500 | +++ (PoC(MKK7)/PoC(MKK4) ≥ 30) | +++ (PoC(JNK1)/PoC(MKK4) ≥ 30) | +++ (PoC(BRaf)/PoC(MKK4) ≥ 30) | – | +++ (PoC < 1)
CCCS(=O)(=O)Nc1c(F)ccc(C(=O)c2n[nH]c3ncc(-c4ccc(S(N)(=O)=O)cc4)cc23)c1F [Example 67, 4-(3-(2,4-difluoro-3-(propylsulfon-amido)benzoyl)-1H-pyrazolo[3,4-b]pyridin-5-yl)benzenesulfonamide] | < 500 | < 500 | – | – | – | < 500 | –
O=C(c1ccc(F)c(NS(=O)(=O)Cc2ccccc2)c1F)c1n[nH]c2ncc(-c3ccncc3)cc12 [Example 68, N-[2,6-difluoro-3-(5-pyridin-4-yl-1H-pyrazolo[3,4-b]pyridine-3-carbonyl)phenyl]-1-phenylmethanesulfonamide] | – | < 500 | +++ (PoC(MKK7)/PoC(MKK4) ≥ 30) | +++ (PoC(JNK1)/PoC(MKK4) ≥ 30) | +++ (PoC(BRaf)/PoC(MKK4) ≥ 30) | – | +++ (PoC < 1)
